Results on 24 compounds are retold here after ChEMBL document CHEMBL5325396, “Discovery of Novel Acridane-Based Tubulin Polymerization Inhibitors with Anticancer and Potential Immunomodulatory Effects” (J Med Chem, 2023).

The structures appear in SMILES notation.

Data set [1] relates to HCT-116. Briefly: Antiproliferative activity against human HCT-116 cells incubated for 48 hrs by MTT assay. The class given is functional, cell-based. Conditions: HCT-116, 48 h.
In data set [2] the test system is B16-F10. The data set is described as follows: Antiproliferative activity against mouse B16-F10 cells incubated for 48 hrs by MTT assay. Format: functional, cell-based. Conditions: B16-F10, 48 h.
Data set [3] has as its system HepG2. Briefly: Antiproliferative activity against human HepG2 cells incubated for 48 hrs by MTT assay. Format: functional, cell-based. Conditions: HepG2, 48 h.
The subject of data set [4] is HeLa. The data set is described as follows: cells. The note with it: Homo sapiens, 48 h.
Description: Antiproliferative activity against human HeLa cells incubated for 48 hrs by MTT assay
The subject of data set [5] is B16-F10. Briefly: Immunomodulatory activity in mouse B16-F10 cells allografted in C57 mouse assessed as increase in CD3-positive CD8-positive cells at 10 mg/kg, ip administered consecutively for 14 days (reference value: 6.66 %). Format: functional. Conditions: time 14 day.
Data set [6] concerns B16-F10. The data set is described as follows: Immunomodulatory activity in mouse B16-F10 cells allografted in C57 mouse assessed as decrease in PD-L1 level at 10 mg/kg, ip administered consecutively for 14 days relative to control. Format: functional. Also noted: scale not given: the % may be the effect or the level left. Conditions: time 14 day.
In data set [7] the test system is B16-F10. The data set is described as follows: Antitumor activity against mouse B16-F10 cells allografted in C57 mouse assessed as tumor growth inhibition at 10 mg/kg, ip administered consecutively for 14 days. The class given is functional. Conditions: B16-F10, 336 h, time 14 day, read-out: TGI.
A short description of data set [8]: Toxicity in C57 mouse allografted with mouse B16-F10 cells assessed as body weight loss at 10 mg/kg, ip administered consecutively for 14 days. The class given is organism-based. Conditions: in vivo, 336 h, time 14 day.
In data set [9] the target is Tubulin. The data set is described as follows: Inhibition of tubulin polymerization (unknown origin). The class given is protein-complex assay, Homo sapiens.
Data set [10] deals with B16-F10. The data set is described as follows: Induction of apoptosis in mouse B16-F10 cells assessed as early apoptotic cells at 20 nM incubated for 48 hrs by annexinV-FITC/PI staining based flow cytometry (reference value: 4.25 %). Format: functional.
The subject of data set [11] is B16-F10. Briefly: Induction of apoptosis in mouse B16-F10 cells assessed as viable cells at 20 nM incubated for 48 hrs by annexinV-FITC/PI staining based flow cytometry (reference value: 93.6 %). Format: functional. Conditions: read-out: Activity.
Data set [12] has as its system B16-F10. The data set is described as follows: Induction of apoptosis in mouse B16-F10 cells assessed as necrotic cells at 20 nM incubated for 48 hrs by annexinV-FITC/PI staining based flow cytometry (reference value: 0.064 %). Format: functional.
The test system of data set [13] is B16-F10. The data set is described as follows: Induction of cell cycle arrest in mouse B16-F10 cells assessed as accumulation at G1 phase at 20 nM incubated for 24 hrs by PI staining based flow cytometry (reference value: 52.77 %). The class given is functional.
Data set [14] deals with B16-F10. Briefly: Induction of cell cycle arrest in mouse B16-F10 cells assessed as accumulation at S phase at 20 nM incubated for 24 hrs by PI staining based flow cytometry (reference value: 21.79 %). Format: functional.
The subject of data set [15] is B16-F10. The data set is described as follows: Induction of cell cycle arrest in mouse B16-F10 cells assessed as accumulation at G2 phase at 20 nM incubated for 24 hrs by PI staining based flow cytometry (reference value: 23.04 %). The class given is functional.
In data set [16] the test system is B16-F10. The data set is described as follows: Induction of apoptosis in mouse B16-F10 cells assessed as late apoptotic cells at 20 nM incubated for 48 hrs by annexinV-FITC/PI staining based flow cytometry (reference value: 2.06 %). The class given is functional.

As to `COc1cc(C(=O)N2c3ccccc3Cc3cc(Cl)ccc32)cc(OC)c1OC`, the IC50 was 191 nM in data set [1], 106 nM in [2], 69 nM in data set [3] and 78 nM in data set [4].
On to `COc1cc(C(=O)N2c3ccccc3Cc3ccc(C(F)(F)F)cc32)cc(OC)c1OC`, for which the half-inhibitory concentration (IC50) in [1] worked out at 6870 nM; in data set [2], 5520 nM; in data set [3], 2860 nM; in data set [4], 6870 nM.
Regarding `COc1cc(C(=O)N2c3ccccc3Cc3ccc4ccccc4c32)cc(OC)c1OC`, the IC50 in [1], in [2], in data set [3] and in data set [4] was over 10000 nM each time.
As to `COC(=O)c1ccc2c(c1)N(C(=O)c1cc(OC)c(OC)c(OC)c1)c1cc(F)ccc1C2`, the IC50 in data set [1] is over 10000 nM; in data set [2], 1260 nM; in [3], 630 nM; in data set [4], 1160 nM.
For the compound `COc1cc(C(=O)N2c3cccc(Cl)c3Cc3c(C)ccc(C)c32)cc(OC)c1OC`, the IC50 in data set [1] worked out at 429 nM; in data set [2] it was 845 nM; in [3], 184 nM; in [4] it was 586 nM.
On to `COc1cc(C(=O)N2c3ccccc3Cc3ccc(F)cc32)cc(OC)c1OC`, for which the IC50 in data set [1] is over 10000 nM; in data set [2], 6900 nM; in data set [3], over 10000 nM; in data set [4], over 10000 nM.
As to `COc1cc(C(=O)N2c3ccccc3Cc3cc(F)ccc32)cc(OC)c1OC`, the IC50 in data set [1] is 256 nM; in [2] it was 144 nM; in data set [3], 35 nM; in data set [4], 98 nM.
With `Cc1c(COc2cc(OCc3cccc(C#N)c3)c(CNC(C)(C)C(=O)O)cc2Cl)cccc1-c1ccccc1`, the Activity in data set [5] is on record as 14.6%; in data set [6], about 45%; in [8], “Non-Toxic”. In addition, the inhibition in vivo at 10 mg/kg in data set [7] turned out to be 19%.
Regarding `COc1cc(C(=O)N2c3cc(C)ccc3Cc3ccc(F)cc32)cc(OC)c1OC`, the IC50 in data set [1] was 240 nM; in data set [2], 274 nM; in [3], 30 nM; in data set [4], 188 nM.
Regarding `COc1cc(C(=O)N2c3ccccc3C(c3ccccc3)c3ccccc32)cc(OC)c1OC`, the IC50 in data set [1], in data set [2], in [3] and in [4] was over 10000 nM throughout.
With `COc1cc(C(=O)N2c3cc(F)ccc3Cc3ccc(F)cc32)cc(OC)c1OC`, the IC50 in data set [1] was over 10000 nM; in data set [2], 1980 nM; in [3], 661 nM; in data set [4], 2050 nM.
On to `COc1ccc2c(c1)Cc1ccccc1N2C(=O)c1cc(OC)c(OC)c(OC)c1`, for which the IC50 in data set [1] was 103 nM; in [2] it was 80 nM; in data set [3] it was 91 nM; in data set [4], 105 nM.
Taken in the same sequence, the figures for `COC(=O)c1ccc2c(c1)N(C(=O)c1cc(OC)c(OC)c(OC)c1)c1ccccc1C2` were 9370 nM, 7170 nM, 3280 nM and 8350 nM.
Turning to `COc1cc(C(=O)N2c3ccccc3Cc3c(C)cccc32)cc(OC)c1OC`, the IC50 in data set [1] was determined as 172 nM; in data set [2], 91 nM; in data set [3], 102 nM; in data set [4] it was 909 nM.
Regarding `COc1cc(C(=O)N2c3cc(Cl)ccc3Cc3ccc(Cl)cc32)cc(OC)c1OC`, the IC50 in data set [1] was over 10000 nM; in [2], 1020 nM; in data set [3], 716 nM; in data set [4] it was 1030 nM.
On to `COc1cc(C(=O)N2c3ccccc3Cc3cc(C)ccc32)cc(OC)c1OC`, for which the concentration for half-maximal inhibition (IC50) in [1] came to 128 nM; in data set [2], 84 nM; in data set [3], 83 nM; in data set [4], 131 nM.
As for `COc1cc(C(=O)N2c3cc(F)ccc3Cc3cc4ccccc4cc32)cc(OC)c1OC`, the concentration for half-maximal inhibition (IC50) in data set [1] is over 10000 nM; in [2], 752 nM; in [3], 216 nM; in [4], 676 nM.
Consider `COc1cc(C(=O)N2c3ccccc3Cc3ccccc32)cc(OC)c1OC`, for which the IC50 in data set [1] was 257 nM; in data set [2], 146 nM; in data set [3] it was 160 nM; in data set [4], 1200 nM; in data set [9] it was 1600 nM.
As to `COc1cc(C(=O)N2c3cc(Br)ccc3Cc3c2ccc(C)c3C)cc(OC)c1OC`, the IC50 in data set [1] came to 129 nM; in [2], 85 nM; in data set [3], 107 nM; in data set [4], 104 nM.
In the case of `COc1cc(C(=O)N2c3ccccc3Cc3c(C)ccc(C)c32)cc(OC)c1OC`, the IC50 in data set [1] came to 62 nM; in data set [2] it was 56 nM; in [3], 30 nM; in data set [4], 49 nM.
Regarding `COc1cc2c(c(OC)c1OC)-c1ccc(OC)c(=O)cc1[C@@H](NC(C)=O)CC2` [COLCHICINE], the Activity in [10] came out at 12.4%; in [12] it was 0.466%; in data set [13], 10.06%; in data set [14], 33.02%; in data set [15] it was 55.16%; in data set [16], 5.68%. In addition, the viability at 0.02 µM in data set [11] worked out at 81.5%. Further, the figures for the IC50 in data set [2], in [3] and in data set [4] were 88 nM, 25 nM and 126 nM, respectively.
Take `COc1cc(C(=O)N2c3ccccc3Cc3ccc(Cl)cc32)cc(OC)c1OC`: the IC50 in data set [1] was determined as 427 nM; in [2], 211 nM; in data set [3], 58 nM; in data set [4], 189 nM.
In the case of `COc1cc(C(=O)N2c3ccccc3Cc3cccc(OC)c32)cc(OC)c1OC`, the IC50 in data set [1] is 208 nM; in data set [2] it was 92 nM; in data set [3], 161 nM; in data set [4] it was 117 nM.
For the compound `COc1cc(C(=O)N2c3ccccc3Cc3c(Cl)cccc32)cc(OC)c1OC`, the IC50 stood at 250 nM in data set [1], 157 nM in data set [2], 71 nM in data set [3] and 86 nM in data set [4].
